Measured values taken from patent US9828357B2, “Cyclic compounds” (Takeda Pharmaceutical Company Limited, priority 2015, dated 2017).
Blank lines part the entries; values can stand above or below the molecule they belong to.

Biological target: T1, TLR4 (Mus musculus, UniProt Q9QUK6)
T1 construct: endogenous in cells; host or cells: RAW264.7 (murine macrophage cell line)
T1 sequence (Q9QUK6 26-835): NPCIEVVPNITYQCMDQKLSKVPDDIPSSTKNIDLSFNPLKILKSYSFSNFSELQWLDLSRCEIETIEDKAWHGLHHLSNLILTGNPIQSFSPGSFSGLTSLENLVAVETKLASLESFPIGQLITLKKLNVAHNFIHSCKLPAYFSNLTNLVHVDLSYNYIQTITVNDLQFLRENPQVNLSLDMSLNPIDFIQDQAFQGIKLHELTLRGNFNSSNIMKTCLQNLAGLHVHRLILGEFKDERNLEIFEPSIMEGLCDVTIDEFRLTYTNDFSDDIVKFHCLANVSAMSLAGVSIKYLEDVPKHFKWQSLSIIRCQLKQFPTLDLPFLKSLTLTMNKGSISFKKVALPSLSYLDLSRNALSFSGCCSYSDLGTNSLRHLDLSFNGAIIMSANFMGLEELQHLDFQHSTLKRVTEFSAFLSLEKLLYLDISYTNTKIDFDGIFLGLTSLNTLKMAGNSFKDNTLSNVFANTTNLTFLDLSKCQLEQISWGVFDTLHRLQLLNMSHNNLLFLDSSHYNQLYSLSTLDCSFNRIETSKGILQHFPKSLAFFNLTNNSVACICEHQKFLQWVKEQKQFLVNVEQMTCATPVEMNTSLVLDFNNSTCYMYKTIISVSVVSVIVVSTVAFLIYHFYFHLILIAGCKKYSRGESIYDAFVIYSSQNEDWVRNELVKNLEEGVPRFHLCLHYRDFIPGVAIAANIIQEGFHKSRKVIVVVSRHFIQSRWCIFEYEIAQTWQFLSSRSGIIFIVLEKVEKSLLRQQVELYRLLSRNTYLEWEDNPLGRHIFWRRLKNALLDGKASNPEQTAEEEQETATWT
T1 sequence (Q9JHF9 19-160 partner): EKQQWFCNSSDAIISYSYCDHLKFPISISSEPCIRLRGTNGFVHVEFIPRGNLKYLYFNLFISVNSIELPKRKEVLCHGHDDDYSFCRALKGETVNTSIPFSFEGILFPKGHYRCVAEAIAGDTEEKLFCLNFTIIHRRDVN
Assay: Inhibitory effect with respect to NO production (LPS/interferon γ-stimulated RAW264.7)
Assay type: cell-based, murine
Conditions: RAW264.7 cells, LPS 1.25 ng/mL and mouse interferon γ 0.2 ng/mL, nitrite ion in culture supernatant
Protocol: The inhibitory effect on TLR4 was determined using the inhibition rate due to the test compound with respect to NO production as a result of addition of lipopolysaccharide (LPS) using murine macrophage cell line RAW264.7. The cells were adjusted to 2×10^6 cells/mL using RPM1-1640 culture medium (phenol red free) supplemented with 10% inactivated bovine fetal serum, and were plated on 384 well plate so as to contain 6×10^4 cells/30 μL per well. Thereafter the cells were cultured at 37° C. overnight under 5% CO2/95% air. The test compound dissolved in DMSO was diluted 200 times using RPM1-1640 culture medium and adjusted so as to form a compound concentration of 500 nM. The prepared test compound 10 μL (final concentration 100 nM) was added to the cells, and LPS (Sigma) and mouse interferon γ (Wako Pure Chemicals) were added in amounts of 10 μL so as to form final concentrations of 1.25 ng/mL and 0.2 ng/mL respectively. The cells were further cultured overnight, and then the nitrite ion (stable NO metabolite) concentration in the culture supernatant was measured as an index of NO production. The nitrite ion concentration was assayed by adding 10 μL of 20 μg/mL 2,3-diamino naphthalene (DAN) dissolved in 0.2N HCl to 20 μL culture supernatant, incubating at room temperature for ten minutes, and then adding 10 μL of 0.5N NaOH, and measuring the fluorescent value at 460 nm (excitation wavelength 355 nm) using an EnVision plate reader (Perkin Elmer). The NO production inhibition rate (%) was calculated using the value without the addition of stimulating agent as control of 100% inhibition, and the value without the addition of the compound as control of 0% inhibition.

SMILES: CCOC(=O)C1=CC2(CCC1S(=O)(=O)C1CCc3c(F)ccc(Cl)c31)O[C@@H](CO)[C@H](CO)O2 (stereo partly drawn) [Compound 9, Ethyl (2S, 3S)-8-((7-chloro-4-fluoro-2,3-dihydro-1H-inden-1-yl)sulfonyl)-2,3-bis(hydroxymethyl)-1,4-dioxaspiro[4.5]dec-6-ene-7-carboxylate]
- NO production inhibitory effect at 100 nM (% inhibition): 110 % inhibition

SMILES: CCOC(=O)C1=CC2(CCC1S(=O)(=O)C1CCc3cc(F)cc(Br)c31)O[C@@H](CO)[C@H](CO)O2 (stereo partly drawn) [Compound 11, Ethyl (2S, 3S)-8-((7-bromo-5-fluoro-2,3-dihydro-1H-inden-1-yl)sulfonyl)-2,3-bis(hydroxymethyl)-1,4-dioxaspiro[4.5]dec-6-ene-7-carboxylate]
- NO production inhibitory effect at 100 nM (% inhibition): 110 % inhibition

SMILES: CCOC(=O)C1=CC2(CC[C@H]1S(=O)(=O)[C@H]1CCc3cc(F)cc(Cl)c31)O[C@@H](CO)[C@H](CO)O2 [Compound 15, Ethyl (2S,3S,8R)-8-(((1S)-7-chloro-5-fluoro-2,3-dihydro-1H-inden-1-yl)sulfonyl)-2,3-bis(hydroxymethyl)-1,4-dioxaspiro[4.5]dec-6-ene-7-carboxylate]
- NO production inhibitory effect at 100 nM (% inhibition): 106 % inhibition

SMILES: CCOC(=O)C1=CCOCC1S(=O)(=O)C1CCc2cccc(Cl)c21 (single isomer, unassigned) [Compound 20]
- NO production inhibitory effect at 100 nM (% inhibition): 104 % inhibition

SMILES: CCOC(=O)C1=CCCCC1S(=O)(=O)C1CCc2c(Cl)cccc21 (stereo not drawn) [Compound 1, Ethyl 6-((4-chloro-2,3-dihydro-1H-inden-1-yl)sulfonyl)cyclohex-1-ene-1-carboxylate]
- NO production inhibitory effect at 100 nM (% inhibition): 96 % inhibition

SMILES: CC1(COC(=O)C2=CC3(CCC2S(=O)(=O)C2CCc4cccc(Cl)c42)O[C@@H](CO)[C@H](CO)O3)CC1 (stereo partly drawn) [Compound 8, (1-methylcyclopropyl)methyl (2S,3S)-8-((7-chloro-2,3-dihydro-1H-inden-1-yl)sulfonyl)-2,3-bis(hydroxymethyl)-1,4-dioxaspiro[4.5]dec-6-ene-7-carboxylate]
- NO production inhibitory effect at 100 nM (% inhibition): 99 % inhibition

SMILES: CCOC(=O)C1=CC2(CCC1S(=O)(=O)C1CCc3ccc(F)c(Cl)c31)O[C@@H](CO)[C@H](CO)O2 (stereo partly drawn) [Compound 10, Ethyl (2S, 3S)-8-((7-chloro-6-fluoro-2,3-dihydro-1H-inden-1-yl)sulfonyl)-2,3-bis(hydroxymethyl)-1,3-dioxaspiro[4.5]dec-6-ene-7-carboxylate]
- NO production inhibitory effect at 100 nM (% inhibition): 100 % inhibition

SMILES: CCOC(=O)C1=CC2(CCC1S(=O)(=O)C1CCc3cccc(Br)c31)O[C@@H](CO)[C@H](CO)O2 (stereo partly drawn) [Compound 12, Ethyl (2S, 3S)-8-((7-bromo-2,3-dihydro-1H-inden-1-yl)sulfonyl)-2,3-bis(hydroxymethyl)-1,4-dioxaspiro[4.5]dec-6-ene-7-carboxylate]
- NO production inhibitory effect at 100 nM (% inhibition): 100 % inhibition

SMILES: CCOC(=O)C1=CC2(CCC1S(=O)(=O)C1CCc3cccc(C)c31)O[C@@H](CO)[C@H](CO)O2 (stereo partly drawn) [Compound 13, Ethyl (2S, 3S)-2,3-bis(hydroxymethyl)-8-((7-methyl-2,3-dihydro-1H-inden-1-yl)sulfonyl)-1,4-dioxaspiro[4.5]dec-6-ene-7-carboxylate]
- NO production inhibitory effect at 100 nM (% inhibition): 100 % inhibition

SMILES: CCOC(=O)C1=CCCC[C@H]1S(=O)(=O)[C@H]1CCc2cccc(Cl)c21 [Compound 18, Ethyl (6R)-6-(((1S)-7-chloro-2,3-dihydro-1H-inden-1-yl)sulfonyl)cyclohex-1-ene-1-carboxylate]
- NO production inhibitory effect at 100 nM (% inhibition): 104 % inhibition

SMILES: CCOC(=O)C1=CC(O)CCC1S(=O)(=O)C1CCc2cccc(Cl)c21 (racemic) [Compound 4, Ethyl 6-((7-chloro-2,3-dihydro-1H-inden-1-yl)sulfonyl)-3-hydroxycyclohex-1-ene-1-carboxylate]
- NO production inhibitory effect at 100 nM (% inhibition) (0.1 µM): 110 % inhibition

SMILES: CCOC(=O)C1=CC(O)CCC1S(=O)(=O)C1CCc2cccc(Cl)c21 (racemic) [Compound 5, Ethyl 6-((7-chloro-2,3-dihydro-1H-inden-1-yl)sulfonyl)-3-hydroxycyclohex-1-ene-1-carboxylate]
- NO production inhibitory effect at 100 nM (% inhibition) (0.1 µM): 100 % inhibition

Other lines, results leading:

- NO production inhibitory effect at 100 nM (% inhibition): 99 % inhibition
SMILES: CCOC(=O)C1=CC2(CCC1S(=O)(=O)C1CCc3c(Cl)cccc31)O[C@H](CO)[C@@H](CO)O2 (stereo partly drawn) [Compound 2, Ethyl (2R,3R)-8-((4-chloro-2,3-dihydro-1H-inden-1-yl)sulfonyl)-2,3-bis(hydroxymethyl)-1,4-dioxaspiro[4.5]dec-6-ene-7-carboxylate]

- NO production inhibitory effect at 100 nM (% inhibition): 105 % inhibition
SMILES: CCOC(=O)C1=CC2(CC[C@H]1S(=O)(=O)[C@H]1CCc3cccc(Cl)c31)O[C@@H](CO)[C@H](CO)O2 [Compound 7, Ethyl (2S,3S,8R)-8-(((1S)-7-chloro-2,3-dihydro-1H-inden-1-yl)sulfonyl)-2,3-bis(hydroxymethyl)-1,4-dioxaspiro[4.5]dec-6-ene-7-carboxylate]

- NO production inhibitory effect at 100 nM (% inhibition) (0.1 µM): 86 % inhibition
SMILES: CCOC(=O)C1=CC2(CCC1S(=O)(=O)C1CCCc3cccc(Cl)c31)O[C@H](CO)[C@@H](CO)O2 (single isomer, unassigned) [Compound 17]

- NO production inhibitory effect at 100 nM (% inhibition): 107 % inhibition
SMILES: CCOC(=O)C1=CC2(CC[C@H]1S(=O)(=O)[C@H]1CCCc3cccc(Cl)c31)O[C@@H](CO)[C@H](CO)O2 [Compound 19, Ethyl (2S,3S,8R)-8-(((1S)-8-chloro-1,2,3,4-tetrahydronaphthalen-1-yl)sulfonyl)-2,3-bis(hydroxymethyl)-1,4-dioxaspiro[4.5]dec-6-ene-7-carboxylate]

- NO production inhibitory effect at 100 nM (% inhibition) (0.1 µM): 108 % inhibition
SMILES: CCOC(=O)C1=CC2(CCC1S(=O)(=O)C1CCCc3cccc(Cl)c31)O[C@H](CO)[C@@H](CO)O2 (single isomer, unassigned) [Compound 16]

- NO production inhibitory effect at 100 nM (% inhibition): 110 % inhibition
SMILES: CCOC(=O)C1=CC2(CCC1S(=O)(=O)C1CCc3c(Cl)cccc31)O[C@@H](CO)[C@H](CO)O2 (stereo partly drawn) [Compound 3, Ethyl (2S,3S)-8-((4-chloro-2,3-dihydro-1H-inden-1-yl)sulfonyl)-2,3-bis(hydroxymethyl)-1,4-dioxaspiro[4.5]dec-6-ene-7-carboxylate]
